# Several values for one entry are separate records, joined by “and”; a condition that tells them apart may be missing. Equal entries are not always repeated.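 Assay format: 96-well plates, 48-hour exposure. GI50 marks 50% less growth. The concentration for full growth arrest is given as TGI.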
# Experiments:
# Test in all cases: NCI tumour cell line growth inhibition, 48 h
# [1] = test system: MOLT-4 leukemia
# [2] = test system: HCT-116 colon
# [3] = test system: OVCAR-4 ovarian
# [4] = test system: HCC-2998 colon
# [5] = test system: SR leukemia
# [6] = test system: KM12 colon
# [7] = test system: LOX IMVI melanoma
# [8] = test system: EKVX NSCLC
# [9] = test system: CCRF-CEM leukemia
# [10] = test system: UACC-257 melanoma
Structure (SMILES),GI50 [1],TGI [1],GI50 [2],TGI [2],GI50 [3],TGI [3],GI50 [4],TGI [4],GI50 [5],TGI [5],GI50 [6],TGI [6],GI50 [7],TGI [7],GI50 [8],TGI [8],GI50 [9],TGI [9] [µM],GI50 [10],TGI [10]
CCCOC(=O)N[C@H]1CCc2c(Br)c(OC)c(OC)c(OC)c2-c2ccc(SC)c(=O)cc21,0.0382 µM,> 100 µM,0.0248 µM,5.07 µM,0.158 µM,> 100 µM,0.0317 µM,4.26 µM,< 0.01 µM,> 40.5 µM,< 0.0145 µM,7.92 µM,< 0.0177 µM,11.5 µM,0.0474 µM,> 100 µM,0.0274 µM,> 51.2,5.02 µM,32.6 µM
COc1ccc2c(c1)C(=O)c1c-2c(NCCCN(C)C)nc2ccccc12,1.43 µM,11.1 µM,1.25 µM,2.65 µM,0.898 µM,16.4 µM,2.48 µM,11.7 µM,1.09 µM,3.58 µM,2.05 µM,5.72 µM,1.44 µM,2.82 µM,5.54 µM,23.1 µM,1.48 µM,3.47,11.8 µM,25.4 µM
Cc1c(Cl)ccc2c1NC(=O)C2(O)CC(=O)c1ccc(Cl)cc1Cl (stereo not drawn),–,> 50 µM,–,> 50 µM,–,> 50 µM,–,> 50 µM,–,0.826 µM,–,> 50 µM,–,> 50 µM,–,> 50 µM,–,22.4,–,> 50 µM
O=C(Cn1ccnc1[N+](=O)[O-])N(CCO)CCO,> 1250 µM,> 1250 µM,> 1250 µM,> 1250 µM,> 1250 µM,> 1250 µM,–,> 250 µM,–,> 79 µM,> 1250 µM,> 1250 µM,> 250 µM,> 1250 µM,> 1250 µM,> 1250 µM,> 580 µM,> 580,> 1250 µM,> 1250 µM
COc1cc(OC)c(-c2cc(=O)c3c(OC)c(OC)c(OC)c(OC)c3o2)cc1OC,–,> 100 µM,–,> 100 µM,–,> 100 µM,–,> 100 µM,–,> 100 µM,–,> 100 µM,–,> 100 µM,–,> 100 µM,–,> 100,–,> 100 µM
C[C@@H]1O[C@@H](O[C@H]2C[C@@H](O)[C@]3(CO)C4C(CC[C@]3(O)C2)[C@@]2(O)CC[C@H](C3=CC(=O)OC3)[C@@]2(C)C[C@H]4O)[C@H](O)[C@H](O)[C@H]1O (stereo partly drawn),0.0128 µM,0.0314 µM,0.0174 µM,0.056 µM,0.0116 µM,0.0308 µM,0.088 µM,0.238 µM,0.0105 µM,0.0317 µM,0.0512 µM,0.132 µM,0.0233 µM,0.0882 µM,0.0151 µM,0.0518 µM,0.0168 µM,0.0808,0.0626 µM,0.129 µM
CN(C)c1c(Cl)c(=O)oc2c1ccc1nc(-c3ccccc3)sc12,–,> 100 µM,–,> 100 µM,–,> 100 µM,–,> 100 µM,–,> 100 µM,–,> 100 µM,–,> 100 µM,–,> 100 µM,–,> 100,–,> 100 µM
O=C1C(=O)c2ccc(Br)cc2-c2cc(Br)ccc21,0.522 µM,1.66 µM,0.587 µM,1.43 µM,0.274 µM,0.696 µM,21.3 µM,> 100 µM,0.998 µM,2.92 µM,9.65 µM,> 100 µM,0.717 µM,2.13 µM,> 100 µM,> 100 µM,0.553 µM,1.83,1.62 µM,4.19 µM
Cc1cc(N(CCCl)CCCl)ccc1C=Nc1cccnc1,2.05 µM,> 80.9 µM,22.7 µM,> 100 µM,22.4 µM,> 100 µM,16.8 µM,32 µM,0.695 µM,> 100 µM,42.6 µM,> 100 µM,12.7 µM,> 100 µM,30 µM,98.9 µM,6.75 µM,> 100,3.7 µM,23.2 µM
O=S(=O)(Nc1ccc(-c2nc(-c3cccc(OCCN4CCOCC4)c3)c(-c3ccnc(Br)c3)[nH]2)cc1)c1ccccc1,2.59 µM,> 100 µM,3.09 µM,> 100 µM,4.16 µM,> 100 µM,1.85 µM,3.71 µM,2.62 µM,> 100 µM,3.21 µM,> 100 µM,1.62 µM,3.42 µM,3.4 µM,> 100 µM,2.89 µM,> 100,3.03 µM,12 µM
CN(C(=O)c1ccc(F)cc1C(F)(F)F)C1CCN(c2nnc(-c3ccnn3C)c3ccccc23)CC1,23.2 µM,68.8 µM,40.8 µM,> 100 µM,20.9 µM,> 100 µM,> 93.3 µM,> 100 µM,50.9 µM,> 100 µM,52.8 µM,> 100 µM,61.5 µM,> 100 µM,19.4 µM,> 100 µM,31.6 µM,> 100,23.2 µM,> 100 µM
Cc1c(/C=C2\CC/C(=C\c3[nH]c(C(=O)OC(C)(C)C)c(C)c3C)C2=O)[nH]c(C(=O)OC(C)(C)C)c1C,–,> 100 µM,–,> 100 µM,–,> 100 µM,–,> 100 µM,–,> 100 µM,–,> 100 µM,–,> 100 µM,–,> 100 µM,–,> 100,–,> 100 µM
Brc1c[n+](Cc2ccc3ccccc3c2)cn1Cc1ccc2ccccc2c1,1.79 µM,5.58 µM,1.21 µM,2.49 µM,1.32 µM,2.76 µM,1.46 µM,2.84 µM,1.17 µM,5.11 µM,1.67 µM,3.28 µM,1.42 µM,2.74 µM,9.93 µM,25 µM,1.69 µM,5.04,1.76 µM,4.12 µM
CCc1nc2c(O)ccc(O)c2nc1C,–,> 39.5 µM,–,20.9 µM,–,17.3 µM,–,> 54.9 µM,–,> 100 µM,–,30.8 µM,–,29.9 µM,–,31.1 µM,–,> 22.3,–,31.4 µM
Cc1c(Cl)cccc1NC(=O)CC1Sc2ccccc2NC1=O (stereo not drawn),–,> 100 µM,–,46.2 µM and 31.4 µM,–,40 µM and 40.4 µM,–,52.7 µM and 34.9 µM,–,56.7 µM,–,> 91.6 µM and 45.9 µM,–,83.8 µM and > 100 µM,–,> 100 µM,–,> 100,38.7 µM and 5.35 µM,> 94.7 µM and 37.8 µM
OCCN1CCN(CCCN2c3ccccc3Sc3ccc(C(F)(F)F)cc32)CC1,2.35 µM and 9.23 µM and 2.83 µM,8.44 µM and 27 µM and 8.49 µM,1.55 µM,5.52 µM,5.29 µM and 10.8 µM and 8.5 µM,11.2 µM and 23.1 µM and 20.9 µM,0.824 µM and 2.75 µM and 1.97 µM,1.6 µM and 7.99 µM and 4.21 µM,2.05 µM and 3.56 µM and 1.9 µM,6.46 µM and 13.2 µM and 5.51 µM,2.35 µM and 8.95 µM,8.01 µM and 21.6 µM,0.898 µM and 5.18 µM and 3.4 µM,2 µM and 18.2 µM and 12.7 µM,5.18 µM and 11.6 µM and 10.4 µM,12.7 µM and 29.2 µM and 30.4 µM,2.59 µM,9.67,0.863 µM and 2.01 µM and 1.96 µM,1.74 µM and 4.97 µM and 4.19 µM
O=C(Cc1ccccc1)Oc1ccc2c(-c3ccccc3)c(C(=O)Nc3ccc(Cl)cc3)c(=O)oc2c1,–,> 100 µM,–,> 100 µM,–,> 100 µM,–,> 100 µM,–,> 100 µM,–,> 100 µM,–,> 100 µM,–,> 100 µM,–,> 100,–,> 100 µM
CC(C)(C)c1nc2c(o1)C(=Nc1ccccc1)c1ccccc1C2=O,–,> 100 µM,–,12.8 µM,–,10.2 µM,–,42.6 µM,–,> 100 µM,–,50.3 µM,–,4.14 µM,–,41 µM,–,> 100,–,4.45 µM
O=C(NO)c1ccc(C(=O)NO)cc1,–,92.9 µM,–,> 100 µM,–,> 100 µM,–,45.5 µM,–,> 100 µM,–,> 100 µM,–,> 100 µM,–,> 100 µM,–,83.1,–,> 100 µM
Cn1cc(-c2cc3c(Nc4ccc(CC(=O)Nc5cc(C(C)(C)C)on5)cc4)ncnc3[nH]2)cn1,0.401 µM and 0.324 µM,11.4 µM and 2.38 µM,0.68 µM and 0.337 µM,4.86 µM and 1.99 µM,0.592 µM and 0.547 µM,4 µM and 5.17 µM,1.34 µM and 0.652 µM,7.5 µM and 4.82 µM,0.328 µM and 0.324 µM,> 53.7 µM,0.0596 µM and 0.0468 µM,2.39 µM and 1.82 µM,0.87 µM and 0.548 µM,6.31 µM and 3.63 µM,1.66 µM and 1.81 µM,5.01 µM and 5.31 µM,0.395 µM and 0.302 µM,–,2.04 µM,6.96 µM and 6.99 µM
CC1(C)CCC(S(=O)(=O)c2ccc3c(c2)/C(=N\O)c2cc(S(=O)(=O)N4CCC(O)(c5cccc(C(F)(F)F)c5)CC4)ccc2-3)CC1,0.0199 µM,0.0444 µM,0.0163 µM,0.0327 µM,0.0251 µM,0.0744 µM,0.0237 µM,0.0545 µM,0.0174 µM,0.0443 µM,0.0217 µM,0.0503 µM,0.0183 µM,0.0381 µM,0.0329 µM,0.408 µM,0.0291 µM,0.0906,0.0665 µM,1.11 µM
O=C(c1ccccc1)c1ccc(-c2ccc(O)cc2)cc1,4.28 µM,33.4 µM,8.42 µM,44.7 µM,5.87 µM,> 100 µM,15.2 µM,43.9 µM,3 µM,18.1 µM,2.85 µM,22.3 µM,11.1 µM,28.8 µM,4.42 µM,41.5 µM,0.533 µM,> 23.9,16 µM,66.5 µM
CC1=CC[C@@H]2[C@@H](CC[C@@]2(C)O)C(C)(C)[C@H]1CC[C@@H]1[C@@]2(C)CCC(=O)C(C)(C)O[C@@H]2CC[C@]1(C)O,–,68.5 µM,–,42 µM,–,> 100 µM,–,40.9 µM,–,59.4 µM,–,29.6 µM,–,33.3 µM,–,> 100 µM,–,48,–,> 100 µM
OCC1SC(n2cnc3cncnc32)C(O)C1O (stereo not drawn),> 100 µM,> 100 µM,> 100 µM,> 100 µM,> 100 µM,> 100 µM,> 100 µM,> 100 µM,> 100 µM,> 100 µM,> 100 µM,> 100 µM,> 100 µM,> 100 µM,> 100 µM,> 100 µM,> 100 µM,> 100,> 100 µM,> 100 µM

# — PubChem BioAssay (NCI)
